For assay [1], the target named is T1, serotonine transporter (SERT) receptor (Homo sapiens, UniProt P31645).
T1 construct: expressed in transfected cells; host or cells: CHO cells
Description: Binding assay SERT (h), [3H]imipramine, CHO cells. The settings on record: read-out: SERT [%]. In short, it runs like this:
(§1)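 Single-concentration test (1×10^−6 M). Total and non-specific binding were counted by scintillation, and their difference defines specific binding.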

Assay [2] has as its system sigma σ receptor. Description: Binding assay σ (non-selective), [3H]DTG, rat cerebral cortex. The note with it: percent inhibition of control specific binding; compounds tested at 1×10^−6 M. In short, it runs like this: as §1
Assay [3] concerns adrenergic α1 receptor. Description: Binding assay α1 (non-selective), [3H]prazosin, rat cerebral cortex. The settings on record: percent inhibition of control specific binding; compounds tested at 1×10^−6 M. In outline:
as §1

The target in assay [4] is T2, muscarinic M3 receptor (Homo sapiens, UniProt P20309).
T2 construct: expressed in transfected cells; host or cells: CHO cells
Description: Binding assay M3 (h), [3H]4-DAMP, CHO cells. The note with it: read-out: M3 [%]. In short, it runs like this: as §1

For assay [5], the target named is T3, serotoninergic receptor 5-HT2C (Homo sapiens, UniProt P28335).
T3 construct: expressed in transfected cells; host or cells: HEK-293 cells
T3 sequence (P28335 33-458): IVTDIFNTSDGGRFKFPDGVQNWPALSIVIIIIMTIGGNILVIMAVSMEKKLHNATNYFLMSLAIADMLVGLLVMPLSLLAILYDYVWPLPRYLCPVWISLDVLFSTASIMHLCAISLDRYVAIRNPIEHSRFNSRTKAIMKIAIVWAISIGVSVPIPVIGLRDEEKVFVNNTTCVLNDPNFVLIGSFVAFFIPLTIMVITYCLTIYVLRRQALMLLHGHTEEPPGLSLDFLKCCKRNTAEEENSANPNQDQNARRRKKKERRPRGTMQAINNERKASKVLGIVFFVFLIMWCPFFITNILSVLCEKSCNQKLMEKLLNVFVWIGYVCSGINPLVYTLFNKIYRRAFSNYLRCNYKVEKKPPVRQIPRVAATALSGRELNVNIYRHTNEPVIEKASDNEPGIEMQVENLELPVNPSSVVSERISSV
Description: Binding assay 5-HT2C (h), [3H]mesulergine, HEK-293 cells. The settings on record: read-out: 5-HT2C [%]. In short, it runs like this: as §1

The target of assay [6] is dopaminergic D3 receptor (Homo sapiens, UniProt P35462). Description: Binding assay D3 (h), [3H]methyl-spiperone, CHO cells. More on the design: expressed in transfected cells; host or cells: CHO cells. The note with it: read-out: D3 [%]. In outline:
as §1

For assay [7], the target named is serotoninergic 5-HT6 receptor (Homo sapiens, UniProt P50406). Description: Binding assay 5-HT6 (h), [3H]LSD, CHO cells. Further details: expressed in transfected cells; host or cells: CHO cells. The settings on record: read-out: 5-HT6. In short, it runs like this:
as §1

The target in assay [8] is serotoninergic 5-HT7 receptor (Homo sapiens, UniProt P34969). Description: Binding assay 5-HT7 (h), [3H]LSD, CHO cells. The settings on record: read-out: 5-HT7. More on the design: expressed in transfected cells; host or cells: CHO cells. In short, it runs like this:
as §1

Assay [9] concerns the target T4, adrenergic α2C receptor (Homo sapiens, UniProt P18825).
T4 sequence (P18825 1-462): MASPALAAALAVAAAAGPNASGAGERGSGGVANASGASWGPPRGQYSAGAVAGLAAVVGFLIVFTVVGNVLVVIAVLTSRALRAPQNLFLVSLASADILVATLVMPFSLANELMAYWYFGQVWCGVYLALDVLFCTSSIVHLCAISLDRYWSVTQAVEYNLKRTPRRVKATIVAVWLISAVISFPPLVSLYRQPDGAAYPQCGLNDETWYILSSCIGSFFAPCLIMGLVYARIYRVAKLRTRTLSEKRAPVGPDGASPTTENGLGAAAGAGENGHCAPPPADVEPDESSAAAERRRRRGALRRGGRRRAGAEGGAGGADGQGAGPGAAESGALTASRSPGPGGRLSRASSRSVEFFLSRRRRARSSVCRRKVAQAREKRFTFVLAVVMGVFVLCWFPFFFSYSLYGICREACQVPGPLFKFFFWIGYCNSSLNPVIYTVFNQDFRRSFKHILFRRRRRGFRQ
Description: Binding assay α2C (h), [3H]RX 821002, CHO cells. Further details: expressed in transfected cells; host or cells: CHO cells. The note with it: read-out: α2C [%]. In short, it runs like this:
as §1

The target of assay [10] is dopaminergic D2 receptor (Homo sapiens, UniProt P14416). Description: Binding assay D2S (h), [3H]methyl-spiperone, HEK-293 cells. More on the design: expressed in transfected cells; host or cells: HEK-293 cells. The settings on record: read-out: D2 [%]. In outline:
as §1

Assay [11] concerns the target T5, serotoninergic 5-HT1A receptor (Homo sapiens, UniProt P08908).
T5 sequence (P08908 1-422): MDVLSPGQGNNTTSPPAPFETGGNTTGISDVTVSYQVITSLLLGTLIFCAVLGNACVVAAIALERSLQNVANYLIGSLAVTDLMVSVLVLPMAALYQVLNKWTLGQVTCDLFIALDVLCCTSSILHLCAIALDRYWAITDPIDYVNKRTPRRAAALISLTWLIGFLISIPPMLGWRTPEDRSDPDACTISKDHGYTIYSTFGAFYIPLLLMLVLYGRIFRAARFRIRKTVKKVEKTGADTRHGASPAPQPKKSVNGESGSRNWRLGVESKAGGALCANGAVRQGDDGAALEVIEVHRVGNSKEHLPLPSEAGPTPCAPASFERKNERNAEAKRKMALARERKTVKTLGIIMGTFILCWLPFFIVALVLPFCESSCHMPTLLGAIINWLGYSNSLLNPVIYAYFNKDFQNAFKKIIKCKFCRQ
Description: Binding assay 5-HT1A (h), [3H]8-OH-DPAT, HEK-293 cells. More on the design: expressed in transfected cells; host or cells: HEK-293 cells. The settings on record: read-out: 5-HT1A. In short, it runs like this: as §1

Assay [12] has as its target serotoninergic 5-HT2A receptor (Homo sapiens, UniProt P28223). Description: Binding assay 5-HT2A (h), [3H]ketanserin, HEK-293 cells. The settings on record: read-out: 5-HT2A. Further details: expressed in transfected cells; host or cells: HEK-293 cells. In outline: as §1
Assay [13] addresses histaminergic H1 receptor (Homo sapiens, UniProt P35367). Description: Binding assay H1 (h), [3H]pyrilamine, HEK-293 cells. More on the design: expressed in transfected cells; host or cells: HEK-293 cells. The settings on record: read-out: H1 [%]. In outline:
as §1

7 molecules from patent US8822517B2, “Arylosulfonamides for the treatment of CNS diseases” (Adamed SP. Z O.O., priority 2010, dated 2014) can be followed below.

Chain of histaminergic H1 receptor (P35367 whole entry): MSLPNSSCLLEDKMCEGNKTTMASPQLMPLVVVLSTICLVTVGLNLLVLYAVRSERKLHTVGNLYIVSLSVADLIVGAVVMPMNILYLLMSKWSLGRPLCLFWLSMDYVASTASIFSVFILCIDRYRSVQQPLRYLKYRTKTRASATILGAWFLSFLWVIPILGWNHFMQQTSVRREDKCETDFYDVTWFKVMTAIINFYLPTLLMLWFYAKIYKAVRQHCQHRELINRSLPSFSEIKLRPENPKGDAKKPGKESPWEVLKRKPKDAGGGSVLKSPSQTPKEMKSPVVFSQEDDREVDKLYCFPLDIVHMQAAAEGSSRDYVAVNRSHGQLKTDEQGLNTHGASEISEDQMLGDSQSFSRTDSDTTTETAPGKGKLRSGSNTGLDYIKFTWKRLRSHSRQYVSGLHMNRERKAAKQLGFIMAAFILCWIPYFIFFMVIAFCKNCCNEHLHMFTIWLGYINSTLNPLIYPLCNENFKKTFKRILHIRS
Chain of dopaminergic D2 receptor (P14416 1-414 isoform P14416-2): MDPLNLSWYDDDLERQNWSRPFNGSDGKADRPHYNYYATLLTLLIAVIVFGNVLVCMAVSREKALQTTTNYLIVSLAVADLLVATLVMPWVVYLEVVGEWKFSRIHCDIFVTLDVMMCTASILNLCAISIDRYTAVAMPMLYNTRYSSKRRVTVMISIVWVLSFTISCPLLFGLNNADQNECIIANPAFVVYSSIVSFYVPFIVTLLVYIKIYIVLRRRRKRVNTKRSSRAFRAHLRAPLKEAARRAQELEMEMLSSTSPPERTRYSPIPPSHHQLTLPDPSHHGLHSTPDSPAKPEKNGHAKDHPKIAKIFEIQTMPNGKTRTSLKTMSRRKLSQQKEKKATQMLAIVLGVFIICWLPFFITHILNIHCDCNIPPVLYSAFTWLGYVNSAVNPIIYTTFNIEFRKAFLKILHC
Chain of serotoninergic 5-HT2A receptor (P28223 whole entry): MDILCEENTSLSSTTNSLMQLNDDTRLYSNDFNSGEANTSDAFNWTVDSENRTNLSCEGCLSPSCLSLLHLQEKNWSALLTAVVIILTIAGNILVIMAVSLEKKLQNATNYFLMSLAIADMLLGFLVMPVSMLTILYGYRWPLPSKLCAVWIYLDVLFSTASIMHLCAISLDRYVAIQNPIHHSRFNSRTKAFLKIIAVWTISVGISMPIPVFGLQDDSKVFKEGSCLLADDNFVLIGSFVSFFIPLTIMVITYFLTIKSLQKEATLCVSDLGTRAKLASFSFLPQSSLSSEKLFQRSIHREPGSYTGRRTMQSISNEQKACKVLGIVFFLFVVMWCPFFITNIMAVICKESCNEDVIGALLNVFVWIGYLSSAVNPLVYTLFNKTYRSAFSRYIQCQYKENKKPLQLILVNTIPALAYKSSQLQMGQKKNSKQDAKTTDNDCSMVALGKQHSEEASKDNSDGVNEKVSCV
Chain of serotoninergic 5-HT6 receptor (P50406 whole entry): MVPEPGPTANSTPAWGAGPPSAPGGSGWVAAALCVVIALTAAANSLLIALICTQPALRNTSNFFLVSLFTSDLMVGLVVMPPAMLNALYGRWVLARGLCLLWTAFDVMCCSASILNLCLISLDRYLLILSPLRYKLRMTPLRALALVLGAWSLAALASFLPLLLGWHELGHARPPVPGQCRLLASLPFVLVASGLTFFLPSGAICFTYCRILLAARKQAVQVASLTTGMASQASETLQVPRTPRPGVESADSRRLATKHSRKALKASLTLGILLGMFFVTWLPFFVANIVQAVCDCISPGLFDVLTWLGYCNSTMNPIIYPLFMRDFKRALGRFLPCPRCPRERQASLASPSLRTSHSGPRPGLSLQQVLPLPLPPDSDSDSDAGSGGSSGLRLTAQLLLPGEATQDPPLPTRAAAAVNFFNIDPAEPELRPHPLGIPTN
T2 sequence (P20309 whole entry): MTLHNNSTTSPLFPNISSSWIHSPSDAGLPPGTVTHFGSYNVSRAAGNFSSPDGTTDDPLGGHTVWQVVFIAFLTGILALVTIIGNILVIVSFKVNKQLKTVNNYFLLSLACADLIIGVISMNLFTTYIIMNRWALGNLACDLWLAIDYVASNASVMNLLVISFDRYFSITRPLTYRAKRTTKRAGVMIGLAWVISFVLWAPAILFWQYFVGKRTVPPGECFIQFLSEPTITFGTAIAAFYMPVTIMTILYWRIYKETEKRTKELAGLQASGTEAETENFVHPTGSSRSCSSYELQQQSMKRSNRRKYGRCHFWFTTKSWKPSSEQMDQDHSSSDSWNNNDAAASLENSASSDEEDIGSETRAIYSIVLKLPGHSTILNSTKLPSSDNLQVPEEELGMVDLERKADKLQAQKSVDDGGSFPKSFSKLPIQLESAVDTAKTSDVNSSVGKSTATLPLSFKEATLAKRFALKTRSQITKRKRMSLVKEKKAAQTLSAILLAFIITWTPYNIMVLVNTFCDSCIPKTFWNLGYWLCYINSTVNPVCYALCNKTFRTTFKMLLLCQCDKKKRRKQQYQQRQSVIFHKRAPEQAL
T1 sequence (P31645 whole entry): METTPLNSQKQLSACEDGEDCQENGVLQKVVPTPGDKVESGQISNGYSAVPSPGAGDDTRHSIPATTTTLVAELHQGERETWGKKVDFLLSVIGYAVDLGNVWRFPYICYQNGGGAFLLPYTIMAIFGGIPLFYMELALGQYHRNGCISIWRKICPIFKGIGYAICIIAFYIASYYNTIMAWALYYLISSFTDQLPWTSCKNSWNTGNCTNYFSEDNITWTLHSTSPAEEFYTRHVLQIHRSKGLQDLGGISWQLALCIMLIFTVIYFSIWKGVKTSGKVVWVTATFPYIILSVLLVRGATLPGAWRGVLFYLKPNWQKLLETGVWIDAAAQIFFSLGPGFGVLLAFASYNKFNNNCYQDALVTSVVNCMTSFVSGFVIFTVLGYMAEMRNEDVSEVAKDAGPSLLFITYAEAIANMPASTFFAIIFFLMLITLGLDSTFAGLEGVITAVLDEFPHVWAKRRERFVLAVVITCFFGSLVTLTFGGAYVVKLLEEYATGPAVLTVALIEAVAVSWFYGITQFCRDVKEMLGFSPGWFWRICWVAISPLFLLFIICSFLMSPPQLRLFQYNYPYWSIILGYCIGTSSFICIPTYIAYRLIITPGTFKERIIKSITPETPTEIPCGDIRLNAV
Chain of dopaminergic D3 receptor (P35462 whole entry): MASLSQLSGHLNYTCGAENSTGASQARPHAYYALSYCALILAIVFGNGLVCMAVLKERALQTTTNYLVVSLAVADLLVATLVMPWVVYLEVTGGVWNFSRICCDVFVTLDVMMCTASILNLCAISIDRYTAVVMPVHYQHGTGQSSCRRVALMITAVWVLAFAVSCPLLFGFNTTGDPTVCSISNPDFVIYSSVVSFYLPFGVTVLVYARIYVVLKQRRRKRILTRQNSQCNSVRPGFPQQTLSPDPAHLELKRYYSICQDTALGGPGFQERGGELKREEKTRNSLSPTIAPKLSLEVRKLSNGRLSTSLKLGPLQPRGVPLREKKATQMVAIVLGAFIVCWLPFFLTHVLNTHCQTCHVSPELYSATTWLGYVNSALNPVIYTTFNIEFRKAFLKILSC
Chain of serotoninergic 5-HT7 receptor (P34969 whole entry): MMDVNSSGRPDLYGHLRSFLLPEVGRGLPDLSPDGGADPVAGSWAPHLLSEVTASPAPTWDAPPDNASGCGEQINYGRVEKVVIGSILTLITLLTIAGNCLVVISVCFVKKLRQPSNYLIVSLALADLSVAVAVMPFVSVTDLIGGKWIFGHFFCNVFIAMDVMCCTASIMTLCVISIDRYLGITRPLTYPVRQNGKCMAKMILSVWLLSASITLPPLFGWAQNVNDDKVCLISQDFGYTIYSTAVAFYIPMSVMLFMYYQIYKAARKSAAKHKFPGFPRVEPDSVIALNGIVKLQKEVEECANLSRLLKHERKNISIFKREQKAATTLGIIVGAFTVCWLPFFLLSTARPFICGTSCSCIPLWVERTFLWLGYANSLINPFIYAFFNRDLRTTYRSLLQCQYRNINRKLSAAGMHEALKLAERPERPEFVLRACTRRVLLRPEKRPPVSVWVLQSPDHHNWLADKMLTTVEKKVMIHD

For `O=S(=O)(NCCCCN1CCC(c2noc3cc(F)ccc23)CC1)c1ccc(F)c(F)c1` [Compound 295, 3,4-Difluoro-N-[4-[4-(6-fluoro-1,2-benzoxazol-3-yl)piperidin-1-yl]butyl]benzenesulphonamide], the inhibition at 1 µM was found to be 16% in assay [1]; 19% in assay [4]; 51% in [5]; 98% in [6]; 93% in assay [7]; 99% in assay [8]. Also, the inhibition at 1 µM was found to be 97% in assay [9]; 95% in assay [10]; 68% in assay [11]; 99% in assay [12]; 95% in assay [13]. The “σ [%]” value in assay [2] worked out at 63%. For the same molecule, in assay [3], the “α1 [%]” value is 96%.
On to `COc1cccc(S(=O)(=O)NCCCCN2CCC(c3noc4cc(F)ccc34)CC2)c1` [Compound 300, N-[4-[4-(6-Fluoro-1,2-benzoxazol-3-yl)piperidin-1-yl]butyl]-3-methoxybenzenesulphonamide], for which the inhibition at 1 µM worked out at 30% in assay [1]; 18% in assay [4]; 49% in [5]; 96% in assay [6]; 89% in [7]; 99% in assay [8]. Besides, the inhibition at 1 µM in assay [9] was determined as 94%; in assay [10] it was 96%; in assay [11] it was 80%; in assay [12], 102%; in assay [13], 87%. In addition, the “σ [%]” value in [2] was determined as 83%. Also, in [3], the “α1 [%]” value worked out at 96%.
For `CC(C)(C)c1ccc(S(=O)(=O)NCCCCN2CCC(c3noc4cc(F)ccc34)CC2)cc1` [Compound 301, 4-tert-Butyl-N-[4-[4-(6-fluoro-1,2-benzoxazol-3-yl)piperidin-1-yl]butyl]benzenesulphonamide], the inhibition at 1 µM in assay [1] is 45%; in assay [4], 18%; in [5], 79%; in assay [6], 96%; in [7], 94%; in assay [8] it was 98%. In addition, the inhibition at 1 µM amounted to 98% in [9]; 96% in [10]; 77% in assay [11]; 101% in [12]; 88% in [13]. Further, the “σ [%]” value in assay [2] worked out at 73%. Besides, the “α1 [%]” value in assay [3] was 96%.
For the molecule `O=S(=O)(NCCCCN1CCC(c2noc3cc(F)ccc23)CC1)c1ccc(Cl)s1` [Compound 308, 5-Chloro-N-[4-[4-(6-fluoro-1,2-benzoxazol-3-yl)piperidin-1-yl]butyl]thiophene-2-sulphonamide], the inhibition at 1 µM in assay [1] was determined as 28%; in [4], 30%; in [5], 57%; in [6] it was 95%; in [7], 83%; in assay [8] it was 99%. The inhibition at 1 µM in assay [9] amounted to 96%; in [10] it was 96%; in assay [11], 81%; in assay [12], 102%; in assay [13] it was 92%. For the same molecule, the “σ [%]” value in [2] is 86%. Also, in assay [3], the “α1 [%]” value is 91%.
With `Cc1c(S(=O)(=O)NCCCCN2CCC(c3noc4cc(F)ccc34)CC2)sc2ccc(Cl)cc12` [Compound 315, 5-Chloro-N-[4-[4-(6-fluoro-1,2-benzoxazol-3-yl)piperidin-1-yl]butyl]-3-methylbenzothiophene-2-sulphonamide], the inhibition at 1 µM was 68% in [1]; 24% in assay [4]; 78% in assay [5]; 97% in assay [6]; 98% in assay [7]; 98% in assay [8]. Besides, the inhibition at 1 µM in assay [9] came out at 93%; in [10], 99%; in [11], 70%; in assay [12], 102%; in assay [13], 90%. In [2], the “σ [%]” value turned out to be 72%. Further, the “α1 [%]” value in assay [3] is listed as −13%.
For `O=S(=O)(NCCCCN1CCC(c2noc3cc(F)ccc23)CC1)c1cc2ccccc2o1` [Compound 316, N-[4-[4-(6-Fluoro-1,2-benzoxazol-3-yl)piperidin-1-yl]butyl]benzofuran-2-sulphonamide], the inhibition at 1 µM in assay [1] was determined as 47%; in assay [4] it was 28%; in [5], 66%; in assay [6], 95%; in assay [7], 93%; in assay [8] it was 97%. The inhibition at 1 µM in [9] worked out at 94%; in [10], 98%; in assay [11] it was 84%; in assay [12], 102%; in assay [13] it was 85%. The “σ [%]” value in assay [2] is reported as 81%. Besides, the “α1 [%]” value in assay [3] is listed as 90%.
On to `O=S(=O)(NCCCCN1CCC(c2noc3cc(F)ccc23)CC1)c1ccc2c(c1)OCO2` [Compound 320, N-[4-[4-(6-Fluoro-1,2-benzoxazol-3-yl)piperidin-1-yl]butyl]-1,3-benzodioxole-5-sulphonamide], for which the inhibition at 1 µM in [1] came to 13%; in [4] it was 24%; in [5], 46%; in assay [6] it was 99%; in assay [7] it was 82%; in assay [8], 99%. The inhibition at 1 µM was determined as 101% in assay [9]; 100% in assay [10]; 69% in assay [11]; 101% in [12]; 84% in assay [13]. The “σ [%]” value in assay [2] turned out to be 80%. In assay [3], the “α1 [%]” value is listed as 98%.
